Test results: US7501383B2, “Substituted [1,2,4]triazolo[1,5-a]pyrimidines and their use for controlling harmful fungi” (BASF Aktiengesellschaft, priority 2004, dated 2009)

Work on `CCCCCCc1nc2nnnc-2c(N)n1C` [I-2, 5-hexyl-6-methyl-7-aminotriazolopyrimidine] yielded a melting point of 193 to 194 °C.
